{"source": "patent US12648957B2", "about": "“Compositions and methods for the treatment of SWI-SNF mutant tumors” (The Children's Hospital of Philadelphia, priority 2019, dated 2026)", "key": {"[1]": {"tested_on": "rhabdoid tumor cell lines (BT12 AT/RT, CHLA266 AT/RT, and G401 RTK)", "experiment": "Cell proliferation assay (MTS CellTiter96), rhabdoid tumor vs Ewing sarcoma cells", "type": "cell-based", "settings": "three rhabdoid tumor cell lines vs Ewing sarcoma cells, FIG. 1C", "procedure": "(§1) Cell Culture. BT12 and CHLA266 cell lines were obtained from the Children's Oncology Group. G401 cell line was obtained from ATCC. TC32 cells were obtained from Dr. Lee Helman (Children's Hospital of Los Angeles). U2OS cells were obtained from Dr. Chand Khanna (Ethos Veterinary Health LLC). All cell lines were grown in RPMI-1640 medium (Invitrogen) supplemented with 10% fetal bovine serum (Gemini Bio-Products), 2 mM L-glutamine (Invitrogen), 100 U/mL penicillin and 100 μg/mL streptomycin (Invitrogen). Cell lines were maintained at less than 80% confluency at 37° C. and 5% CO2 and confirmed to be mycoplasma negative every 6-months.\n(§2) Cell Proliferation Assays. IC50s were calculated with non-linear regression (Graphpad Prism) as the average of three independent experiments performed in duplicate. Cell viability was measured using MTS assay CellTiter96 (Promega) plotted against a standard curve and was confirmed with real-time proliferation assays on the Incucyte Zoom, as previously described (Harlow et al., 2019)."}, "[2]": {"tested_on": "BT12 and G401 rhabdoid tumor cells", "experiment": "Dose response curves in BT12 and G401 cells", "type": "cell-based", "settings": "for sensitivity of rhabdoid tumor cells (dose response curve): BT12 and G401", "procedure": "as §1, §2"}, "[3]": {"settings": "multiple species; cited from earlier work"}, "[4]": {"tested_on": "G401 rhabdoid tumor xenografts", "experiment": "Intramuscular G401 rhabdoid tumor xenograft model", "settings": "for median survival: vehicle 28-days", "description": "Xenograft Experiments. 5×10^6 G401-luc cells were injected intramuscularly into the gastrocnemius of 8 to 10-week-old female homozygous nude mice (Crl; Nu-Foxn1^Nu). […] Pumps were implanted intraperitoneally and removed with 7-days after end of drug delivery. […] Investigators were not blinded to the treatment groups.\nBioluminescence Imaging. Mice were administered Firefly D-Luciferin (GoldBio, 1.5 mg/mouse) with intraperitoneal injections. After injection anesthesia was administered throughout the image acquisition (3% isoflurane at 1 L/min 02 flow). Bioluminescent images were taken 10 minutes after injection using the AMI-1000 imaging system.\nTissue Staining and Immunohistochemistry. Tissues were decalcified in 10% EDTA (pH 8.0) for 7-days prior to paraffin embedding. Paraffin embedded tissue was sectioned into 5-micrometer sections and mounted on colormark plus charged slides. Hematoxylin and Eosin staining was performed on the Ventana Symphony instrument. For immunohistochemistry, antigen retrieval was performed on the PT Link platform on the Dako Autostainer Plus instrument. Following blocking, tissue was incubated with H3K27me3 antibody (Abcam 1:250) or Cleaved Caspase-3 (Cell Signaling Antibody 1:250), washed and then secondary antibody (Envision+System HRP labelled polymer Anti-Rabbit, Dako 1:100) and finished with Dako Liquid DAB+Substrate Chromogen System."}, "[5]": {"tested_on": "BT12 and G401 rhabdoid tumor cells", "experiment": "Live cell imaging proliferation and phenotype (Incucyte Zoom)", "type": "cell-based", "settings": "BT12, EC-8042 200 nM compared with mithramycin 100 nM", "procedure": "as §2"}, "SP1": {"tested_on": "SP1", "experiment": "SP1 expression by quantitative PCR and western blot", "settings": "BT12 and G401 cells, tolfenamic acid concentrations of FIG. 3G", "description": "RNA was subsequently collected using the RNeasy kit and quantified. The RNA was reverse transcribed with the high capacity reverse transcriptase kit (Life Technologies) at 25° C. for 10 minutes, 37° C. for 120 minutes, and 85° C. for 5 minutes. 100 ng cDNA was PCR amplified with 2×SYBR green at 95° C. for 10 min, 95° C. for 15 s, 55° C. for 15s, and 72° C. for 1 min, for 40 cycles. Expression from three independent experiments performed in duplicate was calculated with standard ddCT methods relative to GAPDH and solvent controls.\nCellular fractionation was performed to separate cytoplasmic and nuclear fractions. Fractionation lysates were lysed with cytoplasmic lysis buffer (25 mM HEPES pH 8.0, 50 mM KCl, and 05% NP-40) supplemented with RNAse (Thermo Fisher Scientific) and protease inhibitors (Sigma-Aldrich) for 15-minutes on ice vortexing every 5-minutes. The nuclei were pelleted at 1500× g for 5 minutes and the cytoplasmic fraction was isolated. The nuclei pellet was lysed with 4% LDS lysis buffer. Following dilution of detergent, protein was quantified with the BCA colorimetric assay (Thermo-Scientific). […] Transfer was run at 20 V and 4° C. overnight. The membranes were blocked with 5% milk in TBS-T (1×TBS, 0.1% Tween-20) and probed with Abcam (H3K27me3), EMD Millipore (SP1), and Cell Signaling (SMARCC1, SMARCE1, H3) antibodies."}, "[6]": {"settings": "EC-8042 3-day pump, day 4, vs vehicle"}}, "data": [{"smiles": "COc1cc([C@@H]2c3cc4c(cc3[C@@H](O[C@@H]3O[C@@H]5CO[C@@H](C)O[C@H]5[C@H](O)[C@H]3O)[C@H]3COC(=O)[C@H]23)OCO4)cc(OC)c1O", "note": "[etoposide]", "values": [{"measurement": "fold less sensitive than Ewing sarcoma cells", "setting": "[1]", "result": 70, "unit": "fold"}]}, {"smiles": "COc1cccc2c1C(=O)c1c(O)c3c(c(O)c1C2=O)C[C@@](O)(C(=O)CO)C[C@@H]3O[C@H]1C[C@H](N)[C@H](O)[C@H](C)O1", "note": "[doxorubicin]", "values": [{"measurement": "fold less sensitive than Ewing sarcoma cells", "setting": "[1]", "result": 4, "unit": "fold"}]}, {"smiles": "CO[C@@H]([C@@H]1Cc2cc3cc(O[C@H]4CC(O[C@H]5CC(O)[C@H](O)C(C)O5)[C@H](O)C(C)O4)c(C)c(O)c3c(O)c2C(=O)[C@H]1O[C@H]1CC(O[C@H]2CC(O[C@H]3CC(O)[C@H](O)C(C)O3)[C@@H](O)C(C)O2)[C@H](O)C(C)O1)[C@@H](O)C(C)=O", "note": "(stereo partly drawn) [EC-8042, demycarosyl-3D-β-D-ditioxosyl-mithramycin SK]", "values": [{"measurement": "sensitivity of rhabdoid tumor cells (dose response curve)", "setting": "[2]", "result": "sensitive"}, {"measurement": "concentration at which rhabdoid tumor is sensitive, relative to mithramycin", "setting": "[2]; in vitro, FIGS. S5A-B", "result": "slightly higher concentration as mithramycin"}, {"measurement": "toxicity relative to mithramycin", "setting": "[3]", "result": "more than 10 times"}, {"measurement": "body weight", "setting": "[4]; EC-8042 3-day and 7-day pump, resolved with cessation of drug infusion", "result": "minimal transient weight loss"}, {"measurement": "differentiation in xenograft tumors (H&E)", "setting": "[4]; EC-8042 3-day or 7-day pump", "result": "striking evidence of mesenchymal differentiation"}, {"measurement": "median survival", "setting": "[4]; EC-8042 3-day pump (30 mg/kg)", "result": 68, "unit": "days"}, {"measurement": "mice with complete cures", "setting": "[4]; EC-8042 3-day pump cohort", "result": "Three"}, {"measurement": "H3K27ac staining (IHC)", "setting": "[4]; [6]", "result": "decrease"}, {"measurement": "H3K27me3 staining (IHC)", "setting": "[4]; [6]", "result": "significantly increase in positive staining"}, {"measurement": "cleaved caspase 3 (CC3) staining (IHC)", "setting": "[4]; [6]", "result": "significantly increase in positive staining"}, {"measurement": "human mitochondrial staining (IHC)", "setting": "[4]; [6]", "result": "decrease"}, {"measurement": "median survival", "setting": "[4]; EC-8042 7-day pump (50 mg/kg)", "result": 70, "unit": "days"}, {"measurement": "calcification of tumor tissue (micro-CT)", "setting": "[4]; EC-8042, 7-days after treatment, compared with vehicle", "result": "enhances the calcification and mineralization"}, {"measurement": "duration of response post end of infusion", "setting": "[4]; EC-8042, most mice", "result": "~6", "unit": "weeks"}, {"measurement": "time after treatment without tumor recurrence in cured mice", "setting": "[4]; EC-8042, several mice", "result": 140, "unit": "days"}, {"measurement": "bioluminescent imaging of tumor", "setting": "[4]; EC-8042, subset of mice, end of infusion", "result": "almost no detectable tumor"}, {"measurement": "time to tumor recurrence after treatment end", "setting": "[4]; EC-8042 continuous infusion", "result": "approximately 40 days"}, {"measurement": "tumor response", "setting": "[4]; EC-8042 continuous infusion, 3-days (30 mg/kg) or 7-days (50 mg/kg), all mice in both cohorts", "result": "striking regressions"}, {"measurement": "cell phenotype", "setting": "[5]", "result": "lipid accumulation and a flattened cell phenotype"}]}, {"smiles": "Cc1c(Cl)cccc1Nc1ccccc1C(=O)O", "note": "[tolfenamic acid, reference compound]", "values": [{"measurement": "sensitivity of rhabdoid tumor cells (dose response curve)", "setting": "[2]", "result": "not sensitive"}, {"measurement": "SP1 expression (western blot)", "setting": "SP1", "result": "loss of SP1 expression"}]}, {"smiles": "CCc1c2c(nc3ccc(O)cc13)-c1cc3c(c(=O)n1C2)COC(=O)[C@]3(O)CC", "note": "[SN38]", "values": [{"measurement": "fold less sensitive than Ewing sarcoma cells", "setting": "[1]", "result": 100, "unit": "fold"}]}]}
